# Source: patent publication US20250066853A1, “PHARMACEUTICAL COMPOSITION FOR THE TREATMENT AND/OR PREVENTION OF ANEURYSMS, DIAGNOSTIC SUPPORT METHOD FOR ANEURYSMS, AND METHOD FOR EVALUATING ANEURYSM THERAPEUTICS” (RIKEN, priority 2021, published 2025)
# “Also recorded” adds a separate entry of the source.
# What was measured:
# [1] = system: AHNAK mutation-induced cerebral aneurysm model mice; assay: AHNAK mutation-induced (AHNAKmini p.G3819A) cerebral aneurysm model mice, maximum diameter of cerebral blood vessels (Example 5); format: in vivo, mouse; settings: day 7 to day 28 post-infection, 20 μL/g/day; PD173074 0.1 mg/mL, LY294002 0.02 mg/mL, staurosporine 0.02 mg/mL; versus non-administered group; PD173074 p<0.05
# Excerpt: To introduce AHNAK mutations into experimental animals, it is necessary to incorporate the gene into viral vectors or other vehicles. However, AHNAK is a large protein with a length of 5890 amino acids, making it difficult to incorporate its full-length gene into viral vectors. […] AHNAK has many repeat structures (CRU: Consensus Central Repeat Unit), and the mutation sites are also within the CRU. Therefore, we designed a low-molecular-weight version of AHNAK (AHNAKmini) that combines the […] in this order. […] The amino acid sequence of AHNAKmini is shortened to 1943 amino acids with an N-terminal FLAG tag.
# The DNA encoding the AHNAKmini with the p.G3819A mutation was chemically synthesized and subcloned directly into a pAAV vector to prepare pAAV-CMV-AHNAK (SEQ ID NO: 19). This was further modified to have the mutation corresponding to p.G3819A (specifically, changing the 3156th guanine (g) in SEQ ID NO: 19 to cytosine (c)) to prepare pAAV-CMV-AHNAK p.G3819A. HEK293T cells were transfected with the pHelper vector, pRC vector, and pAAV-CMV-AHNAK p.G3819A, and cultured, after which AAV produced by the iodixanol gradient method was harvested (AAV-CMV-AHNAK p.G3819A). As a control, AAV encoding EGFP (AAV-CMV-EGFP) was similarly prepared. After determining the […] of AAV, it was mixed with a hydrogel of PBS comprising 15% Pluronic F-127.
# Male C57BL/6N mice aged 8-11 weeks (CLEA Japan) were exposed to the middle cerebral artery according to the protocol described in A. Tamura et al., Journal of Cerebral Blood Flow and Metabolism, 1: 53-60 (1981). The hydrogel comprising AAV was applied multiple times at 5-minute intervals. The skull was covered with temporal fascia, the soft tissue was returned to its original position, and the skin was sutured. The total application amounts of AAV-CMV-EGFP and AAV-CMV-AHNAK p.G3819A were 2.4×10^10 vg and 3.3×10^11 vg, respectively. […]
# After decapitation, the cerebral blood vessels were exposed, and the maximum diameter of the cerebral blood vessels was measured. […]
# [2] = system: mouse model of cerebral aneurysms (PDGFRβ p.559_562del); assay: Mouse cerebral aneurysm model with AAV-introduced PDGFRβ p.559_562del, basilar artery size (Example 2); format: in vivo; settings: mice with AAV PDGFRβ p.559_562del, daily i.p. sunitinib 40, axitinib 25, dasatinib 10 mg/kg/day, 28 days post-infection, versus vehicle, sunitinib p<0.05 (Mann-Whitney U)
# Excerpt: A mouse CA (cerebral aneurysm) model was constructed by applying adeno-associated virus (AAV) around the non-branching region of the basilar artery. HEK293T cells were transfected with pHelper vector, pRC vector, and a pAAV vector comprising the target gene. After culturing, AAV was harvested using the iodixanol gradient method. After determining the AAV serotype, it was mixed with a hydrogel of PBS comprising 15% Pluronic F-127. The virus concentrations (vg/mL) in the hydrogels of AAV-CMV-EGFP, AAV-CMV-PDGFRβ, and AAV-CMV-PDGFRβ p559_562del were 2×10^13, 1×10^12, and 1×10^12, respectively.
# Male C57BL/6N mice aged 8-11 weeks (CLEA Japan) were deeply anesthetized with medetomidine (0.3 mg/kg), midazolam (4 mg/kg), and butorphanol (5 mg/kg) administered intraperitoneally (i.p.). The basilar artery was exposed as previously described (Yonekura et al., 2004). Three microliters of hydrogel were applied to the basilar artery and removed after 5 minutes. This application was repeated two more times. The mice were divided into three subgroups (control, PDGFRβ(wt), and PDGFRβ(mutant)). […]
# To evaluate the effect of the virus, sections were stained with Elastica Van Gieson (EVG) method, selecting the largest artery section from each brain sample for measurement. […] The area and perimeter of the stained sites were calculated using FUJI-ImageJ software (J. Schindelin et al., Nature Methods, 2012).
# [3] = system: mouse model of cerebral aneurysms (PDGFRβ p.559_562del); assay: Mouse cerebral aneurysm model with PDGFRβ p.559_562del, low-dose treatment from day 7, maximum diameter of basilar artery (Example 3)
# Experimental: After deep anesthesia with isoflurane, the mice were decapitated, and the cerebral blood vessels were exposed to measure the maximum diameter of the basilar artery. Each drug administration condition was tested on three mice.
structure (smiles),measurement,setting,value
O=c1cc(N2CCOCC2)oc2c(-c3ccccc3)cccc12 [LY294002],Increase in maximum cerebral vessel diameter,[1],suppressed in all mice
CCN(CC)CCCCNc1ncc2cc(-c3cc(OC)cc(OC)c3)c(NC(=O)NC(C)(C)C)nc2n1 [PD173074],Increase in maximum cerebral vessel diameter,[1],significant suppression
CNC(=O)c1ccccc1Sc1ccc2c(/C=C/c3ccccn3)n[nH]c2c1 [axitinib],Enlargement (dilation) of basilar artery,[2]; listed as avitinib,suppressed this arterial dilation
Cc1nc(Nc2ncc(C(=O)Nc3c(C)cccc3Cl)s2)cc(N2CCN(CCO)CC2)n1 [dasatinib],Maximum diameter of basilar artery (cerebral vessel expansion) compared to sunitinib,"[3]; i.p. daily day 7 to day 28, axitinib 0.76, dasatinib 1.0, sunitinib 0.78 mg/kg/day, three mice each, dasatinib vs sunitinib p=0.040",significantly suppressed cerebral vessel expansion
same,Treatment effect on cerebral artery expansion (rank order),"[3]; low concentration ranges, administration from day 7 after mutation introduction",highest for dasatinib; also recorded: high treatment/preventive effects
same,Enlargement (dilation) of basilar artery,[2],suppressed this arterial dilation
CN[C@@H]1C[C@H]2O[C@@](C)([C@@H]1OC)n1c3ccccc3c3c4c(c5c6ccccc6n2c5c31)C(=O)NC4 [staurosporine],Increase in maximum cerebral vessel diameter,[1],suppressed in all mice
